According to patent EP4806890A1, “CRYSTALLINE COMPOUND OR BASIC SALT THEREOF, PREPARATION METHOD THEREFOR, AND USE THEREOF” (Abbisko Therapeutics Co., Ltd., priority 2023, dated 2025):
Entries after “also recorded” stand apart in the source; their conditions may differ. Where a name gives a salt, the structure may show the parent alone.

How the values were obtained:
Assay type in all cases: physicochemical
[1] = Stability determination (thermal stability and photostability, HPLC purity, appearance, XRPD); settings: for physical and chemical stability (in words): 50 °C/75% RH or brown light exposure; for XRPD: crystalline form found; for crystalline form transformation (in words): high temperature and light exposure
Method: (§1) The stability and solubility of the crystalline free form of the compound of formula (I) or the basic salt thereof of the present application were determined by HPLC.
An appropriate amount of the sample was placed in a vial and left to stand at 50 °C, 80 °C or 50 °C & 75% RH (open) for 7 days to evaluate thermal stability. An appropriate amount of the sample was placed in a transparent vial, […] evaluation under conditions of overall near-ultraviolet energy of 1.2 * 10^6 Lux·hr and no less than 200 W·hr/m2.

[2] = Solubility determination (equilibrium solubility, 24 hrs stirring at room temperature, HPLC); settings: for Equilibrium solubility: target concentration 2000 µg/mL, 24 hrs; for pH24 hrs: pH of the filtrate after 24 hrs
Method: as §1
The desired amount of the compound was weighed into a glass vial, and the desired amount of a vehicle was added. A stir bar was added to the vial, and the mixture was stirred at room temperature for 24 hrs. After 24 hrs, the appearance of the sample was observed. An appropriate amount of the sample was filtered through a PVDF 0.45 µm filter membrane, and the filtrate was collected. The pH value of the filtrate was determined, and the sample was diluted with MeOH. The diluted sample was injected into an HPLC system to determine the concentration.

[3] = Hygroscopic behavior test by dynamic vapor sorption (DVS)
From the text: The experimental method of characterizing the crystalline free form of the compound of formula (I) or the basic salt thereof using dynamic vapor sorption (DVS) is as follows: a small amount of the crystalline sample was placed in a precision sample tray that was compatible with the instrument; after the sample was loaded, the sample tray was placed into the instrument for analysis. In this patent, the instruments used for dynamic vapor sorption were all the DVS Intrinsic plus model, and the following experimental parameters were set: nitrogen was used as the carrier gas, a constant temperature of 25 °C was set, the rate of mass percentage change over a unit of time (dm/dt) = 0.002%/min was used as a criterion for determining if equilibrium is reached, and the program humidity change cycle was set to 50-95-0-95-50% RH; within the range of 0-90% RH, a change of 10% RH was taken as a step, and within the range of 90% RH-95% RH, a change of 5% RH was taken as a step.
In the present invention, the hygroscopic weight increases (hygroscopic weight increase/weight before hygroscopy * 100%) of various crystalline forms under various relative humidity conditions were determined using the dynamic vapor sorption method, and the hygroscopicity of different crystalline compounds was evaluated.

[4] = Aluminum foil light exposure control, 9.2 days
[5] = Brown vial light exposure control, 9.2 days
[6] = Transparent light exposure, 9.2 days
[7] = pH 4.7, 50 mM acetic acid buffer
[8] = pH 6.8, 50 mM phosphoric acid buffer

## Cc1c(NC(=O)c2cc(C3CC3)c(CN3CCCC[C@H]3C(=O)O)cn2)cccc1-c1cccc(NC(=O)c2cc(C3CC3)c(CN3CCCC[C@H]3C(=O)O)cn2)c1C [crystalline form A of disodium salt hydrate] [(2S,2'S)-1,1'-(((((2,2'-dimethyl-[1,1'-biphenyl]-3,3'-diyl)bis(azanediyl))bis(carbonyl))bis(4-cyclopropylpyridine-6,3-diyl))bis(methylene))bis(piperidine-2-carboxylic acid)]
[1]; 50 °C
  physical and chemical stability (in words): relatively high physical and chemical stability
[1]; 50 °C, 7 days
  Appearance: White powder
  Purity (%): 99.45%
  XRPD: Crystalline form A of disodium salt
[1]; 50 °C/75%RH, 7 days
  Appearance: White powder
  Purity (%): 99.46%
  XRPD: Crystalline form A of disodium salt
[1]; 80 °C, 7 days
  Appearance: White powder
  Purity (%): 99.34%
  XRPD: Crystalline forms A + B of disodium salt
[1]; [4]
  Appearance: White powder
  Purity (%): 99.51%
  XRPD: Crystalline form A of disodium salt
[1]; [5]
  Appearance: White powder
  Purity (%): 99.50%
  XRPD: Crystalline form A of disodium salt
[1]; Initial, 0 days
  Appearance: White powder
  Purity (%): 99.38%
  XRPD: Crystalline form A of disodium salt
[1]; [6]
  Appearance: White powder
  Purity (%): 99.22%
  XRPD: Crystalline forms A + B of disodium salt
[1]
  crystalline form transformation (in words): underwent crystalline form transformation; also recorded: undergoes crystalline form transformation
[1]; various stability testing conditions, incl. high temperature and light exposure
  chemical stability (in words): good chemical stability; also recorded: relatively high chemical stability
[2]; FaSSGF
  Equilibrium solubility: 22 µg/mL
  pH24 hrs: 1.73
[2]; FaSSIF
  Equilibrium solubility: 303 µg/mL
  pH24 hrs: 6.93
[2]; FeSSIF
  Equilibrium solubility: > 2000 µg/mL
  pH24 hrs: 7.95
[2]; Water, room temperature
  Equilibrium solubility: > 2000 µg/mL
[2]; pH 1.2, HCl 100 mM
  Equilibrium solubility: 1120 µg/mL
  pH24 hrs: 1.01
[2]; [7]
  Equilibrium solubility: 25 µg/mL
  pH24 hrs: 4.61
[2]; [8]
  Equilibrium solubility: 34 µg/mL
  pH24 hrs: 6.88
[2]; Water
  pH24 hrs: 9.61
[3]; Relative humidity 0.0 % at 25 °C
  Hygroscopic weight increase (%): 0.00%
[3]; Relative humidity 10.0 % at 25 °C
  Hygroscopic weight increase (%): 2.40%
[3]; Relative humidity 20.0 % at 25 °C
  Hygroscopic weight increase (%): 7.45%
[3]; Relative humidity 30.0 % at 25 °C
  Hygroscopic weight increase (%): 9.28%
[3]; Relative humidity 40.0 % at 25 °C
  Hygroscopic weight increase (%): 10.62%
[3]; Relative humidity 50.0 % at 25 °C
  Hygroscopic weight increase (%): 11.64%
[3]; Relative humidity 60.0 % at 25 °C
  Hygroscopic weight increase (%): 12.43%
[3]; Relative humidity 70.0 % at 25 °C
  Hygroscopic weight increase (%): 13.25%
[3]; Relative humidity 80.0 % at 25 °C
  Hygroscopic weight increase (%): 14.59%
[3]; after DVS testing
  crystalline form changes after DVS testing: no crystalline form changes
[3]; at 80% RH
  weight increased: more than 10%

## Cc1c(NC(=O)c2cc(C3CC3)c(CN3CCCC[C@H]3C(=O)O)cn2)cccc1-c1cccc(NC(=O)c2cc(C3CC3)c(CN3CCCC[C@H]3C(=O)O)cn2)c1C [crystalline form B of disodium salt anhydrate] [(2S,2'S)-1,1'-(((((2,2'-dimethyl-[1,1'-biphenyl]-3,3'-diyl)bis(azanediyl))bis(carbonyl))bis(4-cyclopropylpyridine-6,3-diyl))bis(methylene))bis(piperidine-2-carboxylic acid)]
[1]; 50 °C
  physical and chemical stability (in words): relatively high physical and chemical stability
[1]; 50 °C, 7 days
  Appearance: White powder
  Purity (%): 92.11%
  XRPD: Crystalline form B of disodium salt
[1]; 50 °C/75%RH, 7 days
  Appearance: White powder
  Purity (%): 92.97%
  XRPD: Crystalline form B of disodium salt
[1]; 80 °C, 7 days
  Appearance: White powder
  Purity (%): 90.77%
  XRPD: Crystalline form B of disodium salt
[1]; [4]
  Appearance: White powder
  Purity (%): 89.50%
  XRPD: Crystalline form B of disodium salt
[1]; [5]
  Appearance: White powder
  Purity (%): 88.10%
  XRPD: Crystalline form B of disodium salt
[1]; Initial, 0 days
  Appearance: White powder
  Purity (%): 91.23%
  XRPD: Crystalline form B of disodium salt
[1]; [6]
  Appearance: White powder
  Purity (%): 83.10%
  XRPD: Crystalline form B of disodium salt
[1]
  crystalline form transformation (in words): no crystalline form transformation was observed
[1]; light exposure
  sensitivity to light (in words): sensitive to light exposure
[1]; stability testing conditions, incl. high temperature and high humidity
  physical stability (in words): good physical stability; also recorded: relatively high physical stability
[2]; FaSSGF
  Equilibrium solubility: 485 µg/mL
  pH24 hrs: 1.72
[2]; FaSSIF
  Equilibrium solubility: 474 µg/mL
  pH24 hrs: 6.93
[2]; FeSSIF
  Equilibrium solubility: ≥ 2000 µg/mL
  pH24 hrs: 6.90
[2]; Water, room temperature
  Equilibrium solubility: ≥ 2000 µg/mL
[2]; pH 1.2, HCl 100 mM
  Equilibrium solubility: ≥ 2000 µg/mL
  pH24 hrs: 0.95
[2]; [7]
  Equilibrium solubility: 135 µg/mL
  pH24 hrs: 4.92
[2]; [8]
  Equilibrium solubility: 194 µg/mL
  pH24 hrs: 7.03
[2]; Water
  pH24 hrs: 9.96
[2]; various pH conditions, buffers and biological medium solutions
  solubility (in words): excellent solubility
